Laboratory results as given in publication PMC7171691 (Journal of Tropical Medicine, 2020).
Converted amounts (≈) assume the structure as drawn. “Also recorded” adds a separate entry of the source. Where two headings read alike, the source gives them in different places.

Assays:
[1] = test system: P. falciparum 3D7 strains (CQ sensitive); assay: In vitro drug sensitivity, tritiated hypoxanthine incorporation assay; assay type: cell-based, Plasmodium falciparum; details: P. falciparum 3D7, CQ sensitive, [3H]hypoxanthine uptake, 48 hours
Description: Further dilutions were prepared on the day of biological assays. All the drug solutions were stored at 4°C for later use.

[2] = test system: P. berghei ANKA; assay: In vivo efficacy, 4-day oral treatment of infected mice; set-up: species or system Plasmodium berghei in female Swiss albino mice; details: for ED50: P. berghei ANKA sensitive strain in mice, four days of oral treatment; for Number of mice which survived up to 11 days: 5 mice per group; for Average parasitaemia, Day 7 / Average parasitaemia, Day 9 / Average parasitaemia, Day 11: after stopping the treatment with 10 mg/kg
Description: Female Swiss albino mice were collected and kept in the animal house of the Center for Biotechnology and Research Development at the Kenya Medical Research Institute (KEMRI), where the animal experiments were carried out. The animals were six weeks old, weighing 20 to 22 g, and they were kept in mice cages and were allowed to access mice pencils (Ungafeed Company Ltd) and water before experimental testing. Plasmodium berghei ANKA strains, sensitive to quinolone and artemisinin-based drugs, were obtained from the Unit of Malaria, Center for Biotechnology and Research and Development, Kenya Medical Research Institute. Parasites were maintained and cryopreserved in a freezer (−80°C). The parasite was subsequently maintained in the laboratory by serial blood passage from mouse to mouse on a weekly basis.
This consisted of in vivo evaluation of hybrid drug against P. berghei ANKA, a rodent parasite which is commonly used in antimalarial studies. Female Swiss albino donor mouse was injected intraperitoneally with 0.2 ml of inoculums of 1 × 10^7 parasitized erythrocytes, and P. berghei ANKA strain was obtained from the donor mouse. Parasitaemia was assessed after 5 days under microscope using the Giemsa staining technique. The donor mouse was sedated using carbon dioxide to collect blood via cardiac puncture in a heparinized tube using a syringe and a needle. Carcasses were pooled in a biohazard container and stored at room temperature while waiting to be incinerated. Afterward, the experimental mice were infected with inoculums of 1 × 10^7 parasitized erythrocytes using an intraperitoneal method. The mice were grouped into five groups consisting of 5 mice per group. […] Blood for making thin blood smear was collected from the tip of the mouse tail. The efficacy of the drug was measured by comparison of blood parasitaemia after the four days of therapy (i.e., on day 5 postinfection). The ones still alive at the end of the experiments were killed by using carbon dioxide gas followed by incineration.
The determination of the dose to be administered was calculated individually according to each mouse weight. In this regard, these formulas were applied: HED (mg/kg) = Animal Dose (mg/kg) ∗ [Animal km/Human km], where HED stands for human equivalent dose and km which is a conversion factor. With km (a constant) = Weight/Body surface area. For mice of 0.02 kg, with a body surface area of 0.007, km = 0.02/0.007 = 3 [15].(3) Dosage mg/kg =Drug concentration mg/ml∗Volume ml/Body weightkg.
From formula (2),(4) Volume ml of drug to be given to each mouse=Body weight kg∗Dosage mg/kg/Drug concentration mg/ml .
The parasitaemia was checked for every 24 hours from the time of infection for 4 days. Thin blood smears were prepared from each mouse tail venous blood. The smears were prepared by the Giemsa staining technique, and the parasitaemia of individual mouse had been checked using a light microscope. The following formula was used to calculate the percentage parasitaemia:(5) The Percentage of parasitaemia=Number of parasitized RBCs/field/Total number of RBCs/field ∗100.
After 4 days, the percentage (%) chemosuppression of each drug was determined using the following formula [17]:(6) Percentage chemosuppression= 100−A−B/A×100, where A is the mean parasitaemia in the negative control group and B is the parasitaemia in the test group. The dose that cured 50% of infected animals had been determined as effective dose (ED50) using a nonlinear regression logistic dose-response model.

[3] = Solubility observations; assay type: physicochemical; details: water
[4] = MTT cytotoxicity assay; assay type: cell-based, African green monkey (Cercopithecus aethiops); details: African green monkey (Cercopithecus aethiops)
Description: To conduct in vitro toxicity, stock solutions of the test compound and reference drugs were prepared with sterile water. […] The test samples were prepared as a 1 mg·ml^−1 stock solution. Further dilutions were prepared on the day of biological assays. All the drug solutions were stored at 4°C for later use. Vero cells (Vero E-6) were obtained from the Center for Traditional Medicine Drugs and Research (CTMDR), KEMRI. Vero cells are kidney cells extracted from an African green monkey (Cercopithecus aethiops). […] Cells were maintained in Minimum Essential Eagle's Medium (MEM) containing 10% fetal bovine serum (FBS), PenStrep, and glutamine. Vero cells were cultured using T-75 culture flasks. The flasks were kept at 37°C in 5% CO2, and the cells were passaged every 2 to 3 days to keep the cells alive. Trypsinization was carried out to detached cells which overlap each other and counted using a hemocytometer (Neubauer).
Using a 96-microwell plate, a cell density of 20,000 vero cells were seeded and incubated for 24 hours at 37°C under 5% CO2 to allow cells to attach to the surface/base of the plate. […] The plates were incubated for 48 hours at 37°C under 5% CO2 to allow the reaction to occur. After 48 hours, 0.5 mg/ml of 3-(4, 5-dimethylthiazol-2-yl)-2,5-diphenyltetra-zolium bromide (MTT) was added for calorimetric measurement of the ability of a drug to kill the vero cell lines. The plates were incubated at 37°C for 3 hours. 100 μL of 100% DMSO was added to each well and mixed to ensure cell lysis and dissolving of the formazan crystals. Doxorubicin was used as a control drug.
The amount of formazan measured was directly proportional to the number of viable cells.

[5] = test system: acute falciparum malaria; details: patients, 0 to 250 mg artesunate together with a curative dose of mefloquine; cited from earlier work
[6] = set-up: method as in PMID 23433124; details: cited from earlier work
[7] = test system: vero cells; details: cited from earlier work
[8] = set-up: method as in PMID 21189459; details: 20 mg/kg, oral route, mice; cited from earlier work
[9] = 10 mg/kg oral, after 4 days of treatment

CNCC(=O)O [Sarcosine, N-methyl glycine]
IC50 [1]: did not show in vitro activity; also recorded: No activity
ED50 [2]: did not show in vivo activity; also recorded: No activity
ED50 ([2]; listed as sarcosine): not detectable
Number of mice which survived up to 11 days ([2]; dosage 0.625 mg/kg oral): 0
Number of mice which survived up to 11 days ([2]; dosage 1.25 mg/kg oral): 1
Number of mice which survived up to 11 days ([2]; dosage 2.5 mg/kg oral): 1
Number of mice which survived up to 11 days ([2]; dosage 5 mg/kg oral): 2
Number of mice which survived up to 11 days ([2]; dosage 10 mg/kg oral): 1
Solubility in water [3]: completely soluble

C[C@H]1[C@H](OC(=O)CCC(=O)Nc2ccc(Oc3ccc(Cl)cc3)c(Cl)c2)O[C@@H]2O[C@@]3(C)CC[C@H]4[C@H](C)CC[C@@H]1[C@@]24OO3 [Artesunate-aniline hybrid]
ED50 [2]: 3.56 mg/kg
Number of mice which survived up to 11 days ([2]; dosage 0.625 mg/kg oral): 1
Number of mice which survived up to 11 days ([2]; dosage 1.25 mg/kg oral): 3
Number of mice which survived up to 11 days ([2]; dosage 2.5 mg/kg oral): 3
Number of mice which survived up to 11 days ([2]; dosage 5 mg/kg oral): 2
Number of mice which survived up to 11 days ([2]; dosage 10 mg/kg oral): 3

COc1cccc2c1C(=O)c1c(O)c3c(c(O)c1C2=O)C[C@@](O)(C(=O)CO)C[C@@H]3O[C@H]1C[C@H](N)[C@H](O)[C@H](C)O1 [Doxorubicin]
CC50 at 48 h [4]: 1.96 µg/mL (≈ 3.61 µM)

3-chloro-4-(4-chlorophenoxy) aniline
IC50 [1]: 0.02286 ± 0.00126 µg/mL
Percentage of chemosupression of parasitaemia [2, 9]: 68%
ED50 [2]: 3.61 mg/kg
Average parasitaemia, Day 7 [2]: 6.97%
Average parasitaemia, Day 9 [2]: 9.03%
Average parasitaemia, Day 11 [2]: 11.84%
Number of mice which survived up to 11 days ([2]; dosage 0.625 mg/kg oral): 1
Number of mice which survived up to 11 days ([2]; dosage 1.25 mg/kg oral): 3
Number of mice which survived up to 11 days ([2]; dosage 2.5 mg/kg oral): 3
Number of mice which survived up to 11 days ([2]; dosage 5 mg/kg oral): 2
Number of mice which survived up to 11 days ([2]; dosage 10 mg/kg oral): 4

C[C@H]1[C@H](OC(=O)CCC(=O)O)O[C@@H]2O[C@@]3(C)CC[C@H]4[C@H](C)CC[C@@H]1[C@@]24OO3 [Artesunate]
ED50 [5]: 1.6 mg/kg
IC50 ([1]; Plasmodium falciparum, read-out: IC50): 0.00263 ± 0.00038 µg/mL (≈ 0.00684 µM)
ED50 ([6]; intraperitoneal route): < 1 mg/kg
ED50 ([6]; oral route, artesunate with 80 mg/kg as highest dosage): 1.8 mg/kg
Parasites observed under the microscope [2, 9]: No parasites were observed
Percentage of chemosupression of parasitaemia [2, 9]: 100%
ED50 ([2]; Plasmodium berghei, 96 h, read-out: ED50): 2.94 mg/kg
Average parasitaemia, Day 7 [2]: 0.00%
Average parasitaemia, Day 9 [2]: 0.2%
Average parasitaemia, Day 11 [2]: 0.67%
Number of mice which survived up to 11 days ([2]; dosage 0.625 mg/kg oral): 2
Number of mice which survived up to 11 days ([2]; dosage 1.25 mg/kg oral): 3
Number of mice which survived up to 11 days ([2]; dosage 2.5 mg/kg oral): 4
Number of mice which survived up to 11 days ([2]; dosage 5 mg/kg oral): 3
Number of mice which survived up to 11 days ([2]; dosage 10 mg/kg oral): 5
Number of mice which survived up to 11 days ([2]; dosage 10 mg/kg oral, listed as artesunate): all mice
CC50 at 48 h [4]: 19.7 µg/mL (≈ 51.2 µM)

CCN(CC)CCCC(C)Nc1ccnc2cc(Cl)ccc12 (stereo not drawn) [Chloroquine]
Concentrations not revealing cytotoxicity effects [7]: ≤ 50 µg/mL
Concentrations showing major cytotoxicity [7]: ≥ 500 µg/mL
Percentage of chemosupression of parasitaemia [2, 9]: 100%
Average parasitaemia, Day 7 [2]: 0.00%
Average parasitaemia, Day 9 [2]: 0.03%
Average parasitaemia, Day 11 [2]: 0.42%
Number of mice which survived up to 11 days ([2]; dosage 0.625 mg/kg oral): 3
Number of mice which survived up to 11 days ([2]; dosage 1.25 mg/kg oral): 3
Number of mice which survived up to 11 days ([2]; dosage 2.5 mg/kg oral): 4
Number of mice which survived up to 11 days ([2]; dosage 5 mg/kg oral): 4
Number of mice which survived up to 11 days ([2]; dosage 10 mg/kg oral): 5
Number of mice which survived up to 11 days ([2]; dosage 10 mg/kg oral, listed as chloroquine): all mice
Chemosupression [8]: 100%
